Tests used:
Rattus norvegicus = species on record: Rattus norvegicus; experiment: Neuronal protective effect of compound against ischemic brain damage in rat t-MCAO model; assay type: functional
[1] = target: T1, 5-hydroxytryptamine receptor 1A (Rattus norvegicus) (UniProt P19327); experiment: Ratio of binding affinity to 5-HT 1A and D2 receptor
T1 sequence (whole entry): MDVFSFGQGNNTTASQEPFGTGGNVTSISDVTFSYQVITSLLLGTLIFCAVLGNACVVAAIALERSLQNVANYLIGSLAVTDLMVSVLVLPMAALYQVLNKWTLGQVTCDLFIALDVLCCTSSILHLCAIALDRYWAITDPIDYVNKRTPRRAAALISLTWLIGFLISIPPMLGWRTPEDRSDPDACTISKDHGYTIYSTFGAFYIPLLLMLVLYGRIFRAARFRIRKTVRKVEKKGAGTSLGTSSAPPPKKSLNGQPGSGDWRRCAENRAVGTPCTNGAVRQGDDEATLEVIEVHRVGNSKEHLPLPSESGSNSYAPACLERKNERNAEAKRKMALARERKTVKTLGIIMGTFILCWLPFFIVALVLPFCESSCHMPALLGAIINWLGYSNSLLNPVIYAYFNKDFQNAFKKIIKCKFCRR

D(2) dopamine receptor = D(2) dopamine receptor (Rattus norvegicus, UniProt P61169); experiment: Binding affinity to Dopamine receptor D2 in of rat striatum membrane with [3H]- raclopride as radioligand; assay type: cell membranes
[2] = target: T2, 5-hydroxytryptamine receptor 1A (Rattus norvegicus, UniProt P19327); experiment: Binding affinity to 5-hydroxytryptamine 1A receptor of rat hippocampus with [3H]8-OH-DPAT as radioligand; assay type: tissue-based
T2 sequence (P19327 whole entry): T1 sequence (whole entry)

Chain of D(2) dopamine receptor (P61169 whole entry): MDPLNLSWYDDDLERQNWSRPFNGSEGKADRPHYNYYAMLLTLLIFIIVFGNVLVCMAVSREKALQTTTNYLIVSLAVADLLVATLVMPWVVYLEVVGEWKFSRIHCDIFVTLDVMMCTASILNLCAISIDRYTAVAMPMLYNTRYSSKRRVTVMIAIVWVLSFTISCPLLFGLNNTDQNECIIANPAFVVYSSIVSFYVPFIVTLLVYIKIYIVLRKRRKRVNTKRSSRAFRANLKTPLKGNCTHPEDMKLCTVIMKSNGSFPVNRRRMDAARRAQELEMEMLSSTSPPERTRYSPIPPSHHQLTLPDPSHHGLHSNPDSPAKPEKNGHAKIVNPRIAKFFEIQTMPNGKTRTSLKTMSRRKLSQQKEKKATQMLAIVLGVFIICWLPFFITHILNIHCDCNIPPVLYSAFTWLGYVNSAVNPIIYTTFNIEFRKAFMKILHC

Structure (SMILES)	Inhibition (Rattus norvegicus)	Ratio [1]	IC50 (D(2) dopamine receptor)	IC50 [2]
Cc1c(N(C)C)c(=O)n(-c2ccccc2)n1C [AMINOPYRINE]	21%			
O=C1c2ccccc2OC=C(Cl)N1CCCCN1CCN(c2ccccn2)CC1		66		
O=C1c2ccccc2OC=C(Cl)N1CCCCN1CC=C(c2ccccn2)CC1 [PICLOZOTAN]	63%	179	84 nM	
O=C1c2ccccc2OC=CN1CCCCN1CCN(c2ncccn2)CC1				18 nM
CC1=COc2ccccc2C(=O)N1CCCCN1CCN(c2ncccn2)CC1		108	1100 nM	10.2 nM
O=C1c2ccccc2OC=C(Cl)N1CCCCN1CCN(c2ncccn2)CC1		125	199 nM	1.59 nM

— ChEMBL document CHEMBL1134206 (Bioorg Med Chem Lett, 2001)
